Results on 23 compounds are retold here after patent US20250090524A1, “BTK INHIBITORS” (BIOGEN MA INC., priority 2021, published 2025).

SMILES strings stand for the structures.

The test system of experiment [1] is CD69 expression on CD19+ B cells in human whole blood. Put plainly: In Vitro Whole Blood CD69 Assay. Particulars: B-cell; human heparinized whole blood, anti-human IgD stimulation, overnight (18 to 22 hours), percentage of CD19+ B cells expressing CD69, flow cytometry; read-out: In Vitro HWB CD69 Assay IC50 Score. It counts as cell-based. As to the method:
Human heparinized venous blood from health donors was aliquoted into 96-well plate and “spiked” with serial dilutions of formula I compounds in DMSO or with DMSO without drug. The final concentration of DMSO in all wells was 0.1%. The plate was incubated at 37° C. for 30 min. Drug-containing samples were stimulated with […] mouse anti-human IgD-dextran (1A62) or 20 μg/mL polyclonal rabbit F(ab′)2 anti-human IgD.
Phosphate-buffered saline (PBS) was added to the negative control unstimulated sample and the plates were incubated overnight (18 to 22 hours) at 37° C. Cells were stained with fluorochrome-conjugated anti-CD19 and anti-CD69 antibodies. Lyse/fix solution was used to remove red blood cells by hypotonic lysis and to fix the remaining cells, which were then analyzed by flow cytometry. CD19+B cells were gated and analyzed for CD69 expression.
The percentage of B cells expressing CD69 was plotted versus the log 10 of the concentration of the drug and the best-fit curves (variable Hill slope) were generated to obtain the IC50 value.
“†” represents an IC50 of greater than 10 μM. “††” represents an IC50 of greater than 1 μM and equal to or less than 10 μM (1 μM<IC50≤10 μM). “†††” represents an IC50 of less than 1 μM.
In general terms: In flow cytometry, cells or beads pass a laser one at a time.

The target in a further experiment is T1, BTK (Homo sapiens, UniProt Q06187).
T1 construct: purchased Upstate 14-552
T1 sequence (Q06187 whole entry): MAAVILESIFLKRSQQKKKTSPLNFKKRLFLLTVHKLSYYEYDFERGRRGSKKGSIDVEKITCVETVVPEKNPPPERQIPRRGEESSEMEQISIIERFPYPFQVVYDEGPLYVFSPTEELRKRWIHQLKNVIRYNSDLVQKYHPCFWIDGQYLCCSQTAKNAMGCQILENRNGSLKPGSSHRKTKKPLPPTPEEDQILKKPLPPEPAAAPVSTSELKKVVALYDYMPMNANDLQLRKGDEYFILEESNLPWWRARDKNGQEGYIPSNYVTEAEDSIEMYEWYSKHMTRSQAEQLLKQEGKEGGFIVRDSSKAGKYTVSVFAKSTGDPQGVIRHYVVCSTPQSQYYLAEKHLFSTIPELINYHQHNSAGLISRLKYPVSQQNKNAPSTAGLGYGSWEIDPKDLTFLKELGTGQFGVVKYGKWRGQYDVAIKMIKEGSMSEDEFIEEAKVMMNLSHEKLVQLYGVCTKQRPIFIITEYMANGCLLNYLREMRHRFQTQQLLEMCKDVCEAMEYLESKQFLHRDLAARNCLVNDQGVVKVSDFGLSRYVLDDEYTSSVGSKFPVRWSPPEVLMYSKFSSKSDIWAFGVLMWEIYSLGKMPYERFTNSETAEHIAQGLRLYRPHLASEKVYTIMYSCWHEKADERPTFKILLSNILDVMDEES
Nature of the experiment: In Vitro BTK Kinase Assay: Btk-PolyGAT-LS Assay. Particulars: active BTK enzyme 0.25 nM, fluorescein-labeled polyGAT peptide 100 nM, 30 minutes incubation, TRF readout; read-out: In Vitro BTK Kinase Assay IC50 Score. It counts as biochemical. How it is done: The purpose of the BTK in vitro assay is to determine compound potency against BTK through the measurement of IC50. Compound inhibition is measured after monitoring the amount of phosphorylation of a fluorescein-labeled polyGAT peptide (Invitrogen PV3611) in the presence of active BTK enzyme (Upstate 14-552), ATP, and inhibitor. The BTK kinase reaction was done in a black 96 well plate (costar 3694). For a typical assay, a 24 μL aliquot of a ATP/peptide master mix (final concentration; ATP […], polyGAT 100 nM) in kinase buffer (10 mM Tris-HCl pH 7.5, 10 mM MgCl2, 200 μM […], 5 mM DTT, 0.01% Triton X-100, and 0.2 mg/ml casein) is added to each well. Next, I uL of a 4-fold, 40× compound titration in 100% DMSO solvent is added, followed by adding […] of BTK enzyme mix in 1× kinase buffer (with a final concentration of 0.25 nM). The assay is incubated for 30 minutes before being stopped with […] of a 50 mM EDTA solution. Aliquots (5 uL) of the kinase reaction are transferred to a low volume white 384 well plate (Corning 3674), and […] of a 2× detection buffer (Invitrogen PV3574, with 4 nM Tb-PY20 antibody, Invitrogen PV3552) is added. The plate is covered and incubated for 45 minutes at room temperature. Time resolved fluorescence (TRF) on Molecular Devices M5 (332 nm excitation; 488 nm emission; 518 nm fluorescein emission) is measured. IC50 values are calculated using a four parameter fit with 100% enzyme activity determined from the DMSO control and 0% activity from the EDTA control.
“†” represents an IC50 of greater than 1 μM and equal to or less than 10 μM. “††” represents an IC50 of greater than 10 nM and equal to or less than 1 μM (10 nM<IC50≤1 μM). “†††” represents an IC50 of greater than 1 nM and equal to or less than 10 nM (1 nM<IC50≤10 nM). “††††” represents an IC50 of less than 1 nM.

For orientation: IC50 means the midpoint of a concentration-inhibition curve.

As for `C=CC(=O)N(C)[C@H]1CC[C@H](C(=O)c2nc(-c3cnn(C)c3)cn3nccc23)C1` (relative stereo) [Example 18, N-methyl-N-(3-(6-(1-methyl-1H-pyrazol-4-yl)pyrazolo[1,5-a]pyrazine-4-carbonyl)cyclopentyl)acrylamide], the IC50 (in experiment [1]; at BTK) was 1000 to 10000 nM in each case.
Regarding `C=CC(=O)N1C[C@H]2C[C@@H](c3nc(-c4cnn(C)c4)cn4nccc34)C[C@H]2C1` (single isomer, unassigned) [Example 1], the IC50 was less than 1000 nM in experiment [1] and less than 1 nM on BTK.
`C=CC(=O)N(C)C1CCC(C(=O)c2nc(-c3cnn(C)c3)cn3nccc23)C1` (single isomer, unassigned) [Example 16, N-methyl-N-(3-(6-(1-methyl-1H-pyrazol-4-yl)pyrazolo[1,5-a]pyrazine-4-carbonyl)cyclopentyl)acrylamide]: the IC50 in experiment [1] lay within 1000 to 10000 nM; at BTK, 1 to 10 nM.
For `C=CC(=O)N(C)[C@@H]1CCC[C@@H](c2nc(-c3cnn(C)c3)cn3nccc23)C1` (single isomer, unassigned) [Example 24, trans-N-methyl-N-(3-(6-(1-methyl-1H-pyrazol-4-yl)pyrazolo[1,5-a]pyrazin-4-yl)cyclohexyl)acrylamide], the half-maximal inhibitory concentration (IC50) in experiment [1] lay in the range of 1000 to 10000 nM; on BTK, 10 to 1000 nM.
As for `C=CC(=O)N(C)[C@H]1CCC[C@H](c2nc(-c3cnn(C)c3)cn3nccc23)C1` (single isomer, unassigned) [Example 25, trans-N-methyl-N-(3-(6-(1-methyl-1H-pyrazol-4-yl)pyrazolo[1,5-a]pyrazin-4-yl)cyclohexyl)acrylamide], the half-maximal inhibitory concentration (IC50) in experiment [1] was 1000 to 10000 nM; on BTK it was 10 to 1000 nM.
For `C=CC(=O)N(C)[C@H]1CCC[C@@H](c2nc(-c3cnn(C)c3)cn3nccc23)C1` (single isomer, unassigned) [Example 26, cis-N-methyl-N-(3-(6-(1-methyl-1H-pyrazol-4-yl)pyrazolo[1,5-a]pyrazin-4-yl)cyclohexyl)acrylamide], the concentration for half-maximal inhibition (IC50) in experiment [1] was in the range of 1000 to 10000 nM; on BTK, 1 to 10 nM.
As to `C=CC(=O)N(C)[C@@H]1CCC[C@H](c2nc(-c3cnn(C)c3)cn3nccc23)C1` (single isomer, unassigned) [Example 27, cis-N-methyl-N-(3-(6-(1-methyl-1H-pyrazol-4-yl)pyrazolo[1,5-a]pyrazin-4-yl)cyclohexyl)acrylamide], the figures for the IC50 (in experiment [1]; at BTK) were 1000 to 10000 nM and 10 to 1000 nM, respectively.
With `C=CC(=O)N1CCC[C@@H](Sc2nc(-c3cnn(C)c3)cn3nccc23)CC1` (single isomer, unassigned) [Example 30], the IC50 on BTK lay in the range of 10 to 1000 nM.
The same measure, in the same setting: next, `C=CC(=O)N1CCC[C@H](Sc2nc(-c3cnn(C)c3)cn3nccc23)CC1` (single isomer, unassigned) [Example 31]: 1000 to 10000 nM; `C=CC(=O)N(C)[C@H]1CC[C@@H](C(=O)c2nc(-c3cnn(C)c3)cn3nccc23)C1` (stereo in doubt) [Example 17, N-methyl-N-(3-(6-(1-methyl-1H-pyrazol-4-yl)pyrazolo[1,5-a]pyrazine-4-carbonyl)cyclopentyl)acrylamide]: 10 to 1000 nM.
`C=CC(=O)N(C)[C@@H]1CC[C@H](C(=O)c2nc(-c3cnn(C)c3)cn3nccc23)C1` (stereo in doubt) [Example 19, N-methyl-N-(3-(6-(1-methyl-1H-pyrazol-4-yl)pyrazolo[1,5-a]pyrazine-4-carbonyl)cyclopentyl)acrylamide]: the half-inhibitory concentration (IC50) in experiment [1] was less than 1000 nM; at BTK, 1000 to 10000 nM.
For the compound `C=CC(=O)N(C)C[C@H]1CC[C@H](c2nc(-c3cnn(C)c3)cn3nccc23)C1` (stereo in doubt) [Example 20, N-methyl-N-((3-(6-(1-methyl-1H-pyrazol-4-yl)pyrazolo[1,5-a]pyrazin-4-yl)cyclopentyl)methyl)acrylamide], the IC50 at BTK lay within 10 to 1000 nM.
Regarding `C=CC(=O)N(C)C[C@H]1CC[C@@H](c2nc(-c3cnn(C)c3)cn3nccc23)C1` (stereo in doubt) [Example 21, N-methyl-N-((3-(6-(1-methyl-1H-pyrazol-4-yl)pyrazolo[1,5-a]pyrazin-4-yl)cyclopentyl)methyl)acrylamide], the IC50 at BTK is 1 to 10 nM.
Regarding `C=CC(=O)N(C)C[C@@H]1CC[C@H](c2nc(-c3cnn(C)c3)cn3nccc23)C1` (stereo in doubt) [Example 22, N-methyl-N-((3-(6-(1-methyl-1H-pyrazol-4-yl)pyrazolo[1,5-a]pyrazin-4-yl)cyclopentyl)methyl)acrylamide], the IC50 at BTK was 10 to 1000 nM.
On the same count and under the same terms, to `C=CC(=O)N(C)C[C@@H]1CC[C@@H](c2nc(-c3cnn(C)c3)cn3nccc23)C1` (stereo in doubt) [Example 23, N-methyl-N-((3-(6-(1-methyl-1H-pyrazol-4-yl)pyrazolo[1,5-a]pyrazin-4-yl)cyclopentyl)methyl)acrylamide] belongs 10 to 1000 nM.
Turning to `C=CC(=O)N1C[C@H]2C[C@H](c3nc(-c4cnn(C)c4)cn4nccc34)C[C@H]2C1` [Example 2, 1-[(3aS,6aR)-5-[6-(1-methylpyrazol-4-yl)pyrazolo[1,5-a]pyrazin-4-yl]-3,3a,4,5,6,6a-hexahydro-1H-cyclopenta[c]pyrrol-2-yl]prop-2-en-1-one], the results for the IC50 (in experiment [1]; at BTK) were 1000 to 10000 nM and 1 to 10 nM, respectively.
On the same counts, the results for `C=CC(=O)N1CC2CC(c3cc(-c4cnn(C)c4)cn4nccc34)CC2C1` (stereo not drawn) [Example 3, 1-[5-[6-(1-methylpyrazol-4-yl)pyrazolo[1,5-a]pyridin-4-yl]-3,3a,4,5,6,6a-hexahydro-1H-cyclopenta[c]pyrrol-2-yl]prop-2-en-1-one] are less than 1000 nM and less than 1 nM.
On the same counts, the results for `C=CC(=O)N1CCC(c2nc(-c3cnn(C)c3)cn3nccc23)CC1` [Example 4, 1-[4-[6-(1-methylpyrazol-4-yl)pyrazolo[1,5-a]pyrazin-4-yl]-1-piperidyl]prop-2-en-1-one] are 1000 to 10000 nM and 1 to 10 nM.
For the compound `C=CC(=O)N1CCCC(c2nc(-c3cnn(C)c3)cn3nccc23)C1` (stereo not drawn) [Example 5, 1-[3-[6-(1-methylpyrazol-4-yl)pyrazolo[1,5-a]pyrazin-4-yl]-1-piperidyl]prop-2-en-1-one], the half-maximal inhibitory concentration (IC50) at BTK lay in the range of 10 to 1000 nM.
As to `C=CC(=O)N1CCCC(c2nc(-c3cnn(C)c3)cn3nccc23)CC1` (stereo not drawn) [Example 6, 1-[4-[6-(1-methylpyrazol-4-yl)pyrazolo[1,5-a]pyrazin-4-yl]azepan-1-yl]prop-2-en-1-one], the half-inhibitory concentration (IC50) was 1000 to 10000 nM in experiment [1] and 10 to 1000 nM on BTK.
With `C=CC(=O)N1CCC(c2nc(-c3cnn(C)c3)cn3ncc(F)c23)CC1` [Example 7, 1-[4-[3-fluoro-6-(1-methylpyrazol-4-yl)pyrazolo[1,5-a]pyrazin-4-yl]-1-piperidyl]prop-2-en-1-one], the half-inhibitory concentration (IC50) in experiment [1] was less than 1000 nM; at BTK, 1 to 10 nM.
Consider `C=CC(=O)N1CC=C(c2nc(-c3cnn(C)c3)cn3ncc(C)c23)CC1` [Example 10, 1-[4-[3-methyl-6-(1-methylpyrazol-4-yl)pyrazolo[1,5-a]pyrazin-4-yl]-3,6-dihydro-2H-pyridin-1-yl]prop-2-en-1-one], for which the IC50 on BTK was in the range of 10 to 1000 nM.
For `C=CC(=O)N1CCC(c2nc(-c3cnn(C)c3)cn3nccc23)CC1C` (stereo not drawn) [Example 12, 1-[2-methyl-4-[6-(1-methylpyrazol-4-yl)pyrazolo[1,5-a]pyrazin-4-yl]-1-piperidyl]prop-2-en-1-one], the IC50 at BTK lay in the range of 10 to 1000 nM.
